The series can be described thus: Humidity (wettability/hygroscopicity) test, Chinese Pharmacopoeia 2010. Conditions: Guidelines for Drug Wetting Test, Chinese Pharmacopoeia 2010 Edition 2 Appendix XIX J; Table 2. It is filed as physicochemical.
`CC(=O)Nc1ncc(-c2cnn(C3CCNCC3)c2)cc1O[C@H](C)c1c(Cl)ccc(F)c1Cl` [Compound of formula (II), N-Acetyl-3-[(1R)-1-(2,6-dichloro-3-fluorophenyl)ethoxy]-5-[1-(4-piperidinyl)-1H-pyrazol-4-yl]-2-pyridinamine] came in with a Wet weight gain of 61.75%.
Under `CC(=O)Nc1ncc(-c2cnn(C3CCNCC3)c2)cc1O[C@H](C)c1c(Cl)ccc(F)c1Cl.O=C(O)/C=C/C(=O)O` [Fumarate] stands 0.80%; under `O=C(O)CC(O)C(=O)O` (stereo not drawn) [Malate], 7.83%.

The values are drawn from patent WO2016169030A1, “Fumarate and crystals of pyridylamine compound” (priority 2015, dated 2016).
